In PMC5122887, “Identification of ER-000444793, a Cyclophilin D-independent inhibitor of mitochondrial permeability transition, using a high-throughput screen in cryopreserved mitochondria” (Scientific Reports, 2016) one finds IC50 data, which are given here for 1 compound.

This experiment has as its target T1, Cyclophilin D (CypD; rhCypD) (Homo sapiens, UniProt P30405).
T1 construct: gene PPIF; amino acids 44 to 207 of full length human CypD, C-terminal His-tag
The experiment can be described thus: HTRF/TR-FRET displacement of CsA-d2 from His-tagged rhCypD; also inhibits PPIase activity (IC50 […]). Type of experiment: binding.

T1 sequence (P30405 44-207): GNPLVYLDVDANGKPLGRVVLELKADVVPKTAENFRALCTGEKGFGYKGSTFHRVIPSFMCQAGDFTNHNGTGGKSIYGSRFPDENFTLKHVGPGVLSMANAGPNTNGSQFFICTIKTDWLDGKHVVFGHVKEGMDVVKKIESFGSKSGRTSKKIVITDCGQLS

In turn, `CC[C@H]1C[C@H](C)[C@@]2(NC1=O)O[C@@H](C[C@H](O)[C@@H](C)CC/C=C/C=C(\C)[C@@H]1C/C=C/C=C/[C@H](O)[C@H](C)[C@@H](O)[C@@H](CCC(C)=O)C(=O)N[C@@H](C(C)C)C(=O)N[C@@H](Cc3cccc(O)c3)C(=O)N3CCC[C@H](N3)C(=O)O1)[C@H](C)[C@H](O)[C@@H]2C` [SfA, sanglifehrin A] came in with an IC50 of 5 nM. This lies in the single-digit nanomolar range.
